# Target: T1, Fatty-acid amide hydrolase 1 (Mus musculus, UniProt O08914)
# T1 sequence (O08914 whole entry): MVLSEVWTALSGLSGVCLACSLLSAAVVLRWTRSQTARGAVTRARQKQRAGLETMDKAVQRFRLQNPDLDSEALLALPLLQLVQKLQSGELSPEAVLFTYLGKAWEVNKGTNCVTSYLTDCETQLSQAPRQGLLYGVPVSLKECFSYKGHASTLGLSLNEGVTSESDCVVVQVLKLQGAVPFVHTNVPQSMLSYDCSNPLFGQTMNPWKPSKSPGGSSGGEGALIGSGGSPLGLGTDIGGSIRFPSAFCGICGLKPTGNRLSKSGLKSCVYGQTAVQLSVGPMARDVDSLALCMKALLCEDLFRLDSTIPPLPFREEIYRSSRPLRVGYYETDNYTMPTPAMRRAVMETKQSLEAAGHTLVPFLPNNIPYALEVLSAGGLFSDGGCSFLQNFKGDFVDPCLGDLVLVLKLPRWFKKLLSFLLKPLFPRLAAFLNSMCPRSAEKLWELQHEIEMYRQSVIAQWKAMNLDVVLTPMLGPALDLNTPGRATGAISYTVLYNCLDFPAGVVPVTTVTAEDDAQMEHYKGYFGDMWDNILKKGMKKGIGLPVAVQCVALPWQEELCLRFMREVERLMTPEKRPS
# Assay: Inhibition of mouse brain FAAH assessed as conversion of [3H-ethanolamine]AEA to [3H]ethanolamine by scintillation counting
row,IC50 [nM],Compound
1,116,CCCCCCCCCCCCNC(=O)O/N=C(\C)c1cccc(-c2cccs2)c1
2,760,C/C(=N\OC(=O)Nc1ccccc1)c1ccc(-c2ccccc2)cc1
3,220,C/C(=N\OC(=O)N1CCCCC1)c1cccc(-c2ccccc2)c1
4,401,C/C(=N\OC(=O)Nc1cccc2ccccc12)c1ccc(-c2ccccc2)cc1
5,100,C/C(=N\OC(=O)NCCCCCc1ccccc1)c1cccc(-c2ccccc2)c1
6,> 50000,C/C(=N\OC(=O)N(c1ccccc1)c1ccccc1)c1cccc(-c2ccccc2)c1

# Further lines, the compound ahead of its results:
row,Compound,IC50 [nM]
1,C/C(=N\OC(=O)Nc1cccc2ccccc12)c1cccc(-c2ccccc2)c1,10
2,C/C(=N\OC(=O)N1CCCCC1)c1cccc(-c2cccs2)c1,112
3,C/C(=N\OC(=O)Nc1cccc2ccccc12)c1ccc(-n2c(C)ccc2C)cc1,> 1000
4,C/C(=N\OC(=O)Nc1cccc2ccccc12)c1ccc(C2CCCCC2)cc1,> 1000

# From ChEMBL document CHEMBL1208724, “A new group of oxime carbamates as reversible inhibitors of fatty acid amide hydrolase” (Bioorg Med Chem Lett, 2010)
